Columns and labels:
Assay in all cases: Kinase selectivity, Mobility shift assay
Assay type in all cases: biochemical
[1] = biological target: ROCK2 (Homo sapiens (Human), UniProt O75116)
Experimental: (§1) Object: In this assay, the inhibitory activity of the test substance on the kinases listed in Table 3 was determined, and therefore the selectivity of the present compound was determined.
(§2) Except for the BRAF V600E kinase in Table 3, the Mobility shift assay was used for other kinases.
(§3) 1. Preparation of Agents:
(§4) • 1.1 1-fold kinase buffer without MnCl2: 50 mM HEPES, pH 7.5, 0.0015% Brij-35, 10 mM MgCl2, 2 mM DTT. • 1.2 1-fold kinase buffer with MnCl2: 50 mM HEPES, pH 7.5, 0.0015% Brij-35, 10 mM MgCl2, 10 mM MnCl2, 2 mM DTT. • 1.3 Termination solution: 100 mM HEPES, pH 7.5, 0.0015% Brij-35, 0.2% Coating Reagent#3, 50 mM EDTA. • 1.4 2.5-fold kinase solution: The kinase was added to the 1-fold kinase buffer to form a 2.5-fold kinase solution. • 1.5 2.5-fold substrate solution: FAM fluorescence-labelled polypeptide and ATP were added to the 1-fold kinase buffer to form a 2.5-fold substrate solution. 2. Preparation of 5-fold compound
(§5) The final test concentration of the compound was 10 μM at maximum. Firstly, a 50-fold concentration (i.e. 500 μM) was prepared with 100% DMSO. The compound was diluted with 100% DMSO by 5 folds at 5 concentrations (successively 500 μM, 100 μM, 20 μM, 4 μM, and 0.8 μM). After diluting with 1-fold kinase buffer by 10 folds, 5 μl of the samples were transferred to a 384-well reaction plate. Two negative control wells and two positive control wells were set at each line respectively. Replication was made in a 96-well plate in five concentrations of 5-fold compound. 10% DMSO was added to the positive control well, and 5 μl of EDTA (250 mM) was added to the negative control well.
(§6) • 3.1 To the 384-well reaction plate was added 5-fold compound dissolved in 10% DMSO at 5 μl/well. • 3.2 To the 384-well reaction plate was added 2.5-fold kinase solution at 10 μl/well. The plate was incubated at room temperature for 10 mins. • 3.3 To the 384-well reaction plate was added 2.5-fold substrate solution at 10 μl/well. The plate was incubated at 28° C. for a certain period. • 3.4 25 μl termination solution was added to terminate the reaction. The conversion was read from Caliper. 4. Inhibition rate calculation Inhibition rate (%)=(maximum−sample value)/(maximum−minimum)×100 • wherein: • maximum refers to the conversion at the DMSO control well, • minimum refers to the conversion at the control well without kinase. Lanthascreen Analysis Method for the BRAF V600E Kinase 1. Preparation of Agents: • 1.1 2-fold kinase solution: using 1-fold kinase buffer to prepare 2-fold kinase solution, with a final concentration of 0.35 nM of BRAFV600E; • 1.2 4-fold substrate solution: using 1-fold kinase buffer to prepare 4-fold substrate solution, with a final substrate solution concentration of 0.2 μM of Fluorescein-MAP2K1 and 1.5 μM of ATP. 2. Preparation of 4-fold compound • The final test concentration of the compound was 10 μM at maximum. Firstly, a 100-fold concentration (i.e. 1000 μM) was prepared with 100% DMSO. The compound was diluted with 100% DMSO by 5 folds at 5 concentrations. The compound series was identical to that in the Mobility Shift Assay. After diluting with 1-fold kinase buffer by 25 folds, the resulting samples were shaked and mixed evenly on a plate-shaker for 10 mins. 3. Procedure • 3.1 To the 384-well reaction plate was added 4-fold compound dissolved in 10% DMSO at 2.5 µl/well; • 3.2 To the 384-well reaction plate was added 2-fold kinase solution at 5 μl/well, and to the negative control wells were added 1-fold kinase buffer. The samples were shaked, mixed evenly, and kept standing at room temperature. • 3.3 To the 384-well reaction plate was added 4-fold substrate solution at 2.5 μl/well. The plate was reacted, shaked, mixed evenly and incubated at room temperature for one hour; • 3.4 Reaction result detection: 2-fold detection solution was prepared, with a final concentration of 2 nM of Antibody and 10 mM of EDTA. 10 μl of the detection solution was transferred to the 384-well plate to terminate the reaction. […]

[2] = biological target: CAMK2a (Homo sapiens (Human), UniProt Q9UQM7)
Experimental: as §1, §2, §3, §4, §5, §6

[3] = biological target: P70s6k (Homo sapiens (Human), UniProt P23443)
Experimental: as §1, §2, §3, §4, §5, §6

[4] = biological target: CK1d (Homo sapiens (Human), UniProt P48730)
Experimental: as §1, §2, §3, §4, §5, §6

[5] = biological target: MAPKAPK2 (Homo sapiens (Human), UniProt P49137)
Experimental: as §1, §2, §3, §4, §5, §6

[6] = biological target: JAK2 (Homo sapiens (Human), UniProt O60674)
Experimental: as §1, §2, §3, §4, §5, §6

[7] = biological target: ABL (Homo sapiens (Human), UniProt P00519)
Sequence of ABL (P00519 whole entry, species assumed): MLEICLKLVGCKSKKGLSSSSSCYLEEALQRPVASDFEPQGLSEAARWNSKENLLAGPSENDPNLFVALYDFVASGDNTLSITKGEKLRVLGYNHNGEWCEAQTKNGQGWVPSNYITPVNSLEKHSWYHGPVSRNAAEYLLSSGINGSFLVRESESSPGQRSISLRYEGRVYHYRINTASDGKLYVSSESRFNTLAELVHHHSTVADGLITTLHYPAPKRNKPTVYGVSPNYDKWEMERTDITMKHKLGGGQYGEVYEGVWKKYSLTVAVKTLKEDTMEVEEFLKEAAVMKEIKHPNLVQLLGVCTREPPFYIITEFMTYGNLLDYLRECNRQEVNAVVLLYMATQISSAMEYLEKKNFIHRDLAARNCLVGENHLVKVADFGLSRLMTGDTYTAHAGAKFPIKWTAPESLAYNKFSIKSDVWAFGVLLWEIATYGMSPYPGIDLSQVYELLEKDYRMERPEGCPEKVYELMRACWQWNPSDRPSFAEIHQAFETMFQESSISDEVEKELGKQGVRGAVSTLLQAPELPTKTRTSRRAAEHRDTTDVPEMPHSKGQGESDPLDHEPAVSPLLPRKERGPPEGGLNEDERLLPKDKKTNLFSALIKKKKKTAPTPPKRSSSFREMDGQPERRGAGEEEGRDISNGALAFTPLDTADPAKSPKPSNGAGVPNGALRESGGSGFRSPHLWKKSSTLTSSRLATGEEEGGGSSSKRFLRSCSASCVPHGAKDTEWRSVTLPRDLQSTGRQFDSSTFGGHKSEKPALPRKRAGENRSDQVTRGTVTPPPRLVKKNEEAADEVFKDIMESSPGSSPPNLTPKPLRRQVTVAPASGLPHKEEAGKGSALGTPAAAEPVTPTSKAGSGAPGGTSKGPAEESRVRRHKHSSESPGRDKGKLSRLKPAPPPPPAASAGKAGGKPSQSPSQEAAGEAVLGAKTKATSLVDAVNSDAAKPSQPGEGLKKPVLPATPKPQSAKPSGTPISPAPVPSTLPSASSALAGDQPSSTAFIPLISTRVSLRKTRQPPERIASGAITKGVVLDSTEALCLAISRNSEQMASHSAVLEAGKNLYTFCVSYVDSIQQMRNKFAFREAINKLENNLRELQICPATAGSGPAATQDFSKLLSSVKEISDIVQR
Experimental: as §1, §2, §3, §4, §5, §6

[8] = biological target: AKT1 (Homo sapiens (Human), UniProt P31749)
Sequence of AKT1 (P31749 whole entry, species assumed): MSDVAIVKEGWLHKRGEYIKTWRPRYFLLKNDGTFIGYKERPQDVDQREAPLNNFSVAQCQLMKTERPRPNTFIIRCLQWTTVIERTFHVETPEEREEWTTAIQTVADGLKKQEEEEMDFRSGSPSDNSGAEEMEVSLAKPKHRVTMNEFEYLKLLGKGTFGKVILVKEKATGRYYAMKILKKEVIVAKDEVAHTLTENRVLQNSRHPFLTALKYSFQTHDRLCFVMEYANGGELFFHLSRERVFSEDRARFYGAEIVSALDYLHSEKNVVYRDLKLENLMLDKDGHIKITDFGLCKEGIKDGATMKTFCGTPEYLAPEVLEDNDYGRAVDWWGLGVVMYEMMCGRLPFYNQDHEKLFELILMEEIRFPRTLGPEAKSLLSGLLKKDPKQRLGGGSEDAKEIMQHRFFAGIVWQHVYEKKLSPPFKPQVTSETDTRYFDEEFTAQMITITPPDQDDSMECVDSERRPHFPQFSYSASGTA
Experimental: as §1, §2, §3, §4, §5, §6

[9] = biological target: Tie2 (Homo sapiens (Human), UniProt Q02763)
Sequence of Tie2 (Q02763 23-1124, species assumed): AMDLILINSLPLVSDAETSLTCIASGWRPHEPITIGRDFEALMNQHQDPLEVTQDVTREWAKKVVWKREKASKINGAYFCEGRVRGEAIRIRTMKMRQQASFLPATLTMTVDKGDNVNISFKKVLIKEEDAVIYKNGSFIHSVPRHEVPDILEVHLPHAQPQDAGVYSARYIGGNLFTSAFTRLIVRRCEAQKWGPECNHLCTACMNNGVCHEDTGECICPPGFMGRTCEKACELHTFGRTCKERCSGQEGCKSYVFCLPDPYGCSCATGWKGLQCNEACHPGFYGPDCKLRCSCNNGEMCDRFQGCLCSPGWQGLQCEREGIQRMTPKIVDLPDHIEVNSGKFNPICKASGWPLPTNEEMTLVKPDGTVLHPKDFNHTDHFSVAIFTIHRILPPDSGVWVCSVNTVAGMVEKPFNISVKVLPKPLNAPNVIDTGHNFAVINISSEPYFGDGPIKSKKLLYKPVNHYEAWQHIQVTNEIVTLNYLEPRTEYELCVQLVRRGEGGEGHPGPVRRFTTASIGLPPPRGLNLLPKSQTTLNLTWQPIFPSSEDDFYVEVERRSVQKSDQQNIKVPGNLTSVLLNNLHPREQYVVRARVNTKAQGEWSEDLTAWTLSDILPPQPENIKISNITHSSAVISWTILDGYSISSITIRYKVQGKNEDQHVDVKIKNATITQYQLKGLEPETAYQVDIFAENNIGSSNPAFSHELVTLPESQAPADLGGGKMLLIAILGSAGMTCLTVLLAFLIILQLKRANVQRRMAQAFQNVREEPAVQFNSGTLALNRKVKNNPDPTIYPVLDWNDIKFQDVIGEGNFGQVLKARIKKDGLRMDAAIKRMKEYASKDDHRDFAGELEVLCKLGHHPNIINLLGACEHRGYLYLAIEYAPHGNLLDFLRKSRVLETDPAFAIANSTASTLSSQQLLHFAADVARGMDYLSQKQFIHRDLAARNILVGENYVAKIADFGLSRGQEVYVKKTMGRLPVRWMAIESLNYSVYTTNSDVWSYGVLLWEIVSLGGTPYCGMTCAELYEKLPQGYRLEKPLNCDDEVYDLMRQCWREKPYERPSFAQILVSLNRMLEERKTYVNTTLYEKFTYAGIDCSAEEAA
Experimental: as §1, §2, §3, §4, §5, §6

[10] = biological target: LYNa (Homo sapiens (Human), UniProt P07948)
Sequence of LYNa (P07948 whole entry, species assumed): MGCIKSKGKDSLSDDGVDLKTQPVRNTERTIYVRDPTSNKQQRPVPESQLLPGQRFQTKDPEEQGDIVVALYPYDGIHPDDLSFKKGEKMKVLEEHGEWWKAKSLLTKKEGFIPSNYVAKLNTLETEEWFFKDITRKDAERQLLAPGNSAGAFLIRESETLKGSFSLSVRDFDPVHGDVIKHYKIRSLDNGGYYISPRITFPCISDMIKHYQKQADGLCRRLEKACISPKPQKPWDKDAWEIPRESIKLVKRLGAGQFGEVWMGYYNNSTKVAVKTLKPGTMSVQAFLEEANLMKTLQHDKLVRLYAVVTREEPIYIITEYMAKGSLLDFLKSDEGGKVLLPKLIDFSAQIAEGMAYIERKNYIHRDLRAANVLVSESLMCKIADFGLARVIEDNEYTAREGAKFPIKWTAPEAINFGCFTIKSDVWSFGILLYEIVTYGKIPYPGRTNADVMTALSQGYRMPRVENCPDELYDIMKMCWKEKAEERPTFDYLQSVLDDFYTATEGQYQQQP
Experimental: as §1, §2, §3, §4, §5, §6

[11] = biological target: SYK (Homo sapiens (Human), UniProt P43405)
Experimental: as §1, §2, §3, §4, §5, §6

[12] = biological target: PKCa (Homo sapiens (Human), UniProt P17252)
Experimental: as §1, §2, §3, §4, §5, §6

[13] = biological target: JAK3 (Homo sapiens (Human), UniProt P52333)
Sequence of JAK3 (P52333 whole entry, species assumed): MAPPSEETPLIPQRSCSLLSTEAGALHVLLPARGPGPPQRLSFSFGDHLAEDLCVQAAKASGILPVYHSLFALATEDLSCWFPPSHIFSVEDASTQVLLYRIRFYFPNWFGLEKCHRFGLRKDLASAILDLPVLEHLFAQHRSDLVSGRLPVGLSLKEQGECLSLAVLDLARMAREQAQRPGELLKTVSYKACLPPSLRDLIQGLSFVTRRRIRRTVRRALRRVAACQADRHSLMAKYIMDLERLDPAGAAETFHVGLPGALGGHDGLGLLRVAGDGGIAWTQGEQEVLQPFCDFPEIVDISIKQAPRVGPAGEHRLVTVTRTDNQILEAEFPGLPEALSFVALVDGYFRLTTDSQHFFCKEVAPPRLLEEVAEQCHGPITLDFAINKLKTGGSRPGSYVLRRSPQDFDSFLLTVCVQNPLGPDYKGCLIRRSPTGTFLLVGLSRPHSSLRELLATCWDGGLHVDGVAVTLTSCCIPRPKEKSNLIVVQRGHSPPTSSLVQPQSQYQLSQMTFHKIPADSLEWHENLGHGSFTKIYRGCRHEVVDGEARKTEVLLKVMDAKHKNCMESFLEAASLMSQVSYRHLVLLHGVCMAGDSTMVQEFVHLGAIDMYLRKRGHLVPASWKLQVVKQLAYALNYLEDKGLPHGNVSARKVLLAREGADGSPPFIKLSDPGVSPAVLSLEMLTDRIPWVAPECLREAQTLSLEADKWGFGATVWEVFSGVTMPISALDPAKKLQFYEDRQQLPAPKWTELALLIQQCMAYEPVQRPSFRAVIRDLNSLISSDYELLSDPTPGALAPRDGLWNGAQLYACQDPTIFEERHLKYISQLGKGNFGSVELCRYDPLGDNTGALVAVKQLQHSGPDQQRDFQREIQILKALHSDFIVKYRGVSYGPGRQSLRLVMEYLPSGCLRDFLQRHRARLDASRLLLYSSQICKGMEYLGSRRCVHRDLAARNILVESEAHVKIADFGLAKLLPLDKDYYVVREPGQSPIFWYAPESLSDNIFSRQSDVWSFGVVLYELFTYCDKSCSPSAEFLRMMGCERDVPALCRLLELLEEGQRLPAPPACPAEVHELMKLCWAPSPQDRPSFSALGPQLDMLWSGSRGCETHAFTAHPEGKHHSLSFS
Experimental: as §1, §2, §3, §4, §5, §6

[14] = biological target: PIM1 (Homo sapiens (Human), UniProt P11309)
Experimental: as §1, §2, §3, §4, §5, §6

[15] = biological target: SRC (Homo sapiens (Human), UniProt P12931)
Experimental: as §1, §2, §3, §4, §5, §6

[16] = biological target: JNK2 (Homo sapiens (Human), UniProt P45984)
Experimental: as §1, §2, §3, §4, §5, §6

[17] = biological target: CHK1 (Homo sapiens (Human), UniProt O14757)
Experimental: as §1, §2, §3, §4, §5, §6

[18] = biological target: MST2 (Homo sapiens (Human), UniProt Q13188)
Experimental: as §1, §2, §3, §4, §5, §6

[19] = biological target: GSK3β (Homo sapiens (Human), UniProt P49841)
Sequence of GSK3β (P49841 whole entry, species assumed): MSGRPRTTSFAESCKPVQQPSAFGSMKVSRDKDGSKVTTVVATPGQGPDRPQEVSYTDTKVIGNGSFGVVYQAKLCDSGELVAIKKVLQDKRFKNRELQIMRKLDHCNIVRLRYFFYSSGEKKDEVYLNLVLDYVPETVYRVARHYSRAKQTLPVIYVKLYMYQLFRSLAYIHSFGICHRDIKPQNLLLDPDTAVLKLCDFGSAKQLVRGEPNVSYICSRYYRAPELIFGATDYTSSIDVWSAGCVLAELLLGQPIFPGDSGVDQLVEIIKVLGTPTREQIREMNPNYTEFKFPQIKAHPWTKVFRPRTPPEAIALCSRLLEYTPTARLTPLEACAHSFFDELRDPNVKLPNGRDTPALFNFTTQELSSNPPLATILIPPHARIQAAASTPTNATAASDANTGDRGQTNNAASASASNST
Experimental: as §1, §2, §3, §4, §5, §6

SMILES: Nc1ccc(-c2ccc3ncc4c(=O)[nH]c(=O)n(-c5cccc(C(F)(F)F)c5)c4c3n2)cn1 [Compound 5, 9-(6-aminopyridin-3-yl)-1-(3-(trifluoromethyl)phenyl)pyrimido[5,4-c][1,5]naphthyridine-2,4(1H,3H)-dione]
- IC50 [1]: > 10000 nM
- IC50 [2]: > 10000 nM
- IC50 [3]: > 10000 nM
- IC50 [4]: > 10000 nM
- IC50 [5]: > 10000 nM
- IC50 [6]: > 10000 nM
- IC50 [7]: > 10000 nM
- IC50 [8]: > 10000 nM
- IC50 [9]: 2430 nM
- IC50 [10]: 1370 nM
- IC50 [11]: > 10000 nM
- IC50 [12]: > 10000 nM
- IC50 [13]: > 10000 nM
- IC50 [14]: > 10000 nM
- IC50 [15]: 842 nM
- IC50 [16]: > 10000 nM
- IC50 [17]: > 10000 nM
- IC50 [18]: > 10000 nM
- IC50 [19]: > 10000 nM

— US9365572B2, “PI3K and/or mTOR inhibitor” (XUANZHU PHARMA CO., LTD., priority 2012, dated 2016)
